Our source for the IC50 values is patent US11440907B1 (Merck Patent GmbH, priority 2018, dated 2022).

The structures appear in SMILES notation. Some results are limits rather than exact numbers.

For the first experiment, the system named is XBP1(u)-luciferase splicing reporter in HepG2 hepatoma cells. In words: HepG2 XBP1 reporter assay (XBP1(u)-Luc). It counts as cell-based. The conditions noted are these: 6 hours after compound addition, Table 4. The source says: HepG2 XBP1 Reporter Assay
HepG2 hepatoma cells were transduced with a retrovirus encoding the cDNA for unspliced (u) XBP1, which contains a non-processed intron, fused to the cDNA for firefly luciferase. Upon induction of ER stress, the non-processed intron of XBP1(u) is spliced out by active IRE1alpha endonuclease. The resulting spliced (s) XBP1 is now in frame with luciferase which causes the production of active luciferase protein, resulting in bioluminescence
HepG2 XBP1(u)-Luc cells were plated […] Cultured cells with a stably transfected reporter construct were plated at approximately 30,000 cells per well into 96 well multi-well plates for twenty four hours. The testing compounds were then added to the wells in 3-fold serial dilutions using a twenty seven micromolar top concentration. A series of control wells for each cell type received only compound solvent. Six hours after the addition of compound, reporter activity for luciferase was assayed, by addition of the SteadyGlo luminescence reagent (Promega). The reporter luminescence activity was measured using Pherastar plate reader (BMG Labtech). Readings was normalized to DMSO only treated cells, and normalized activities were then used in the IC50 calculations. The HepG2 XBP1 reporter assay data are summarized in Tables 3-5: A<0.6 μM; 0.6 μM≤B<2.0 μM; 2.0 μM≤C<5.0 μM; D≥5.0 μM.
(A reporter such as luciferase makes a cellular process visible.)
Compound `COc1cc(Cl)c([C@H]2COCCCN2c2cc(C)nc(N)n2)cc1O` [C-95] came in with an IC50 below 0.6 µM.

Still in this experiment, the particulars now being: Homo sapiens, 6 hours after compound addition, Table 4.
`Cc1cc(N2CCCOCC2c2cc(CS(C)(=O)=O)ccc2Cl)nc(N)n1` (stereo in doubt) [C-52, 4-[(R)-3-(2-Chloro-5-methanesulfonylmethyl-phenyl)-[1,4]oxazepan-4-yl]-6-methyl-pyrimidin-2-ylamine] came in with an IC50 of 0.6 to 2 µM.
As for `Cc1cc(N2CCCOCC2c2cc(S(N)(=O)=O)c(Cl)cc2Cl)nc(N)n1` (stereo not shown) [C-8], the IC50 lay within 0.6 to 2 µM.
Same read-out and setting: to `Cc1cc(N2CCCOCC2c2cc(O)c(Cl)cc2Cl)nc(N)n1` (stereo not shown) [C-9] belongs 0.6 to 2 µM; to `Cc1cc(N2CCCOCC2c2cc(C)c(Cl)cc2Cl)nc(N)n1` (stereo not shown) [C-10], 2 to 5 µM.
On the same count and under the same terms, in the case of `CNc1cc(Cl)c(C2COCCCN2c2cc(C)nc(N)n2)cc1C` (stereo not shown) [C-25] it was below 0.6 µM; in that of `Cc1cc(N2CCCOCC2c2cc3c(cc2Cl)CCC3)nc(N)n1` (stereo not shown) [C-26], 0.6 to 2 µM; in that of `Cc1cc(Cl)c(C2COCCCN2c2cc(N)nc(N)n2)cc1C` (stereo not shown) [C-27], 0.6 to 2 µM.
Same read-out and setting: to `COc1cc(Cl)c(C2COCCCN2c2cc(C)nc(N)n2)cc1F` (stereo not shown) [C-28] belongs 0.6 to 2 µM; to `CCOc1cc(C2COCCCN2c2cc(C)nc(N)n2)c(Cl)cc1OC` (stereo not shown) [C-29], below 0.6 µM.
Consider `Cc1cc(N2CCCOCC2c2cc3c(cc2Cl)NCCC3)nc(N)n1` (stereo not shown) [C-43], for which the IC50 was below 0.6 µM.
The same measure, in the same setting: in the case of `COC(=O)COc1cc(Cl)c(C2COCCCN2c2cc(C)nc(N)n2)cc1OC` (stereo not shown) [C-44] it was 0.6 to 2 µM.
The same measure, in the same setting: to `C=CCOc1cc(Cl)c(C2COCCCN2c2cc(C)nc(N)n2)cc1OC` (stereo not shown) [C-45] belongs 0.6 to 2 µM.
In the case of `COc1cc(C2COCCCN2c2cc(C)nc(N)n2)c(Cl)cc1Cl` (stereo not shown) [C-46], the IC50 lay within 2 to 5 µM.
Same read-out and setting: to `CCCOc1cc(Cl)c(C2COCCCN2c2cc(C)nc(N)n2)cc1OC` (stereo not shown) [C-47] belongs 0.6 to 2 µM; to `Cc1cc(N2CCCOCC2c2cc(F)c(-c3ccncc3)cc2Cl)nc(N)n1` (stereo not shown) [C-48], 0.6 to 2 µM.
Same read-out and setting: in the case of `Cc1cc(N2CCCOC[C@@H]2c2ccc(CS(C)(=O)=O)cc2F)nc(N)n1` [C-50, 4-[(S)-3-(2-Fluoro-4-methanesulfonylmethyl-phenyl)-[1,4]oxazepan-4-yl]-6-methyl-pyrimidin-2-ylamine] it was below 0.6 µM; in that of `Cc1cc(N2CCCOCC2c2ccc(OCC(N)=O)cc2Cl)nc(N)n1` (stereo not shown) [C-53, 2-{4-[4-(2-Amino-6-methyl-pyrimidin-4-yl)-[1,4]oxazepan-3-yl]-3-chloro-phenoxy}-acetamide], below 0.6 µM; in that of `Cc1cc(N)nc(N2CCCOCC2c2cc3c(cc2Cl)CCN3C)c1` (stereo not shown) [C-54], below 0.6 µM.
Same read-out and setting: in the case of `Cc1cc(N2CCCOCC2c2cc3c(cc2Cl)OCC(C)(C)CO3)nc(N)n1` (stereo not shown) [C-55] it was 0.6 to 2 µM; in that of `COc1cc(Cl)c(C2COCCCN2c2cc(C)nc(N)n2)cc1OC1CCC1` (stereo not shown) [C-56], 2 to 5 µM; in that of `Cc1cc(N2CCCOCC2c2cc(Cl)c(OC(F)F)cc2Cl)nc(N)n1` (stereo not shown) [C-57], 0.6 to 2 µM.
`Cc1cc(N2CCCOC[C@@H]2c2cc3c(cc2Cl)NCC3)nc(N)n1` [C-59] came in with an IC50 below 0.6 µM.
Still for that read-out and setting: to `Cc1cc(N2CCCOCC2c2ccc(O[C@H](C)CO)cc2Cl)nc(N)n1` (stereo partly drawn) [C-60, (R)-2-{4-[4-(2-Amino-6-methyl-pyrimidin-4-yl)-[1,4]oxazepan-3-yl]-3-chloro-phenoxy}-propan-1-ol] belongs 0.6 to 2 µM; to `Cc1cc(N2CCCOCC2c2ccc(OC[C@H](O)CO)cc2Cl)nc(N)n1` (stereo partly drawn) [C-61, (R)-3-{4-[4-(2-Amino-6-methyl-pyrimidin-4-yl)-[1,4]oxazepan-3-yl]-3-chloro-phenoxy}-propane-1,2-diol], below 0.6 µM; to `Cc1cc(N2CC3(CC3)COCC2c2ccc(CS(C)(=O)=O)cc2Cl)nc(N)n1` (stereo not shown) [C-62, 4-[7-(2-Chloro-4-methanesulfonylmethyl-phenyl)-5-oxa-8-aza-spiro[2.6]non-8-yl]-6-methyl-pyrimidin-2-ylamine], at least 5 µM.
Still for that read-out and setting: to `Cc1cc(N2CC(C)COCC2c2ccc(CS(C)(=O)=O)cc2Cl)nc(N)n1` (stereo not shown) [C-63, 4-[3-(2-Chloro-4-methanesulfonylmethyl-phenyl)-6-methyl-[1,4]oxazepan-4-yl]-6-methyl-pyrimidin-2-ylamine] belongs at least 5 µM; to `Cc1cc(N2CCCOC[C@@H]2c2ccc(OC[C@@H](O)CO)cc2Cl)nc(N)n1` [C-64, (S)-3-{4-[(S)-4-(2-Amino-6-methyl-pyrimidin-4-yl)-[1,4]oxazepan-3-yl]-3-chloro-phenoxy}-propane-1,2-diol], 2 to 5 µM.
Still for that read-out and setting: in the case of `Cc1cc(N2CCCOC[C@@H]2c2cc3c(cc2Cl)OCC(=O)N3)nc(N)n1` [C-67] it was at least 5 µM; in that of `Cc1cc(N2CCCOC[C@H]2c2cc3c(cc2Cl)OCC(=O)N3)nc(N)n1` [C-68], below 0.6 µM; in that of `Cc1cc(N2CCCOC[C@@H]2c2cc3c(cc2Cl)OCCO3)nc(N)n1` [C-70], below 0.6 µM.
`Nc1nccc(N2CCCOC[C@H]2c2cc3c(cc2Cl)OCCCO3)n1` [C-71] returned a half-inhibitory concentration (IC50) of at least 5 µM.
In turn, `Nc1nccc(N2CCCOC[C@@H]2c2cc3c(cc2Cl)OCCCO3)n1` [C-72] registered an IC50 below 0.6 µM.
Same read-out and setting: to `Cc1cc(N2CCCOCC2c2ccc(CS(C)(=O)=O)cc2OC(F)F)nc(N)n1` (stereo not shown) [C-75] belongs below 0.6 µM; to `COc1cc(C2COCCCN2c2cc(C)nc(N)n2)c(Cl)cc1N` (stereo not shown) [C-76], below 0.6 µM.
On the same count and under the same terms, to `Cc1cc(N2CCCOCC2c2cc(N)c(C(F)(F)F)cc2Cl)nc(N)n1` (stereo not shown) [C-77] belongs 0.6 to 2 µM; to `COc1cc([C@H]2COCCCN2c2cc(C)nc(N)n2)c(Cl)cc1O` [C-78], below 0.6 µM; to `COc1cc([C@@H]2COCCCN2c2cc(C)nc(N)n2)c(Cl)cc1O` [C-79], at least 5 µM.
Same read-out and setting: in the case of `COc1cc(Cl)c([C@H]2COCCCN2c2cc(C)nc(N)n2)cc1OC` [C-80] it was below 0.6 µM; in that of `COc1cc(Cl)c([C@@H]2COCCCN2c2cc(C)nc(N)n2)cc1OC` [C-81], at least 5 µM.
With `Cc1cc(N2CCCOCC2c2ccc(CS(C)(=O)=O)nc2Cl)nc(N)n1` (stereo not shown) [C-82], the IC50 is 0.6 to 2 µM.
Still for that read-out and setting: to `CCOc1cc(Cl)c([C@H]2COCCCN2c2cc(C)nc(N)n2)cc1OC` [C-85] belongs below 0.6 µM; to `CCOc1cc(Cl)c([C@@H]2COCCCN2c2cc(C)nc(N)n2)cc1OC` [C-86], at least 5 µM.
Take `Cc1cc(N2CCCOC[C@@H]2c2cc(Cl)c(O)cc2Cl)nc(N)n1` [C-87]: the IC50 fell in the range of 0.6 to 2 µM.
`Cc1cc(N2CCCOCC2c2cc3c(cc2Cl)CCCN3)nc(N)n1` (stereo not shown) [C-88] registered an IC50 of 2 to 5 µM.
Still for that read-out and setting: in the case of `CCOC(=O)COc1cc(Cl)c(C2COCCCN2c2cc(C)nc(N)n2)cc1OC` (stereo not shown) [C-89] it was 0.6 to 2 µM; in that of `Cc1cc(N2CCCOCC2c2cc3c(cc2Cl)OCC2(CC2)CO3)nc(N)n1` (stereo not shown) [C-90], below 0.6 µM; in that of `CCCOc1cc(Cl)c(C2COCCCN2c2cc(C)nc(N)n2)cc1OCC` (stereo not shown) [C-91], 0.6 to 2 µM.
On the same count and under the same terms, to `Cc1cc(N2CCCOC[C@@H]2c2cc3c(cc2Cl)n(C)c(=O)n3C)nc(N)n1` [C-93] belongs below 0.6 µM.
On the same count and under the same terms, to `COc1cc(Cl)c([C@@H]2COCCCN2c2cc(C)nc(N)n2)cc1O` [C-94] belongs below 0.6 µM; to `Cc1cc(N2CCCOCC2c2cc3c(cc2Cl)COCO3)nc(N)n1` (stereo not shown) [C-96], 0.6 to 2 µM; to `COc1cc(C2COCCCN2c2cc(C)nc(N)n2)c(Cl)cc1OCC(N)=O` (stereo not shown) [C-97], 0.6 to 2 µM.
As for `COc1cc(C2COCCCN2c2cc(C)nc(N)n2)c(Cl)cc1OCC#N` (stereo not shown) [C-98], the IC50 is below 0.6 µM.
Compound `COc1cc(Cl)c(C2COCCCN2c2cc(C)nc(N)n2)cc1C` (stereo not shown) [C-99] displayed a half-inhibitory concentration (IC50) of 0.6 to 2 µM.
On the same count and under the same terms, in the case of `Cc1cc(N2CCCOCC2c2cc(Cl)c(F)cc2Cl)nc(N)n1` (stereo not shown) [C-100] it was 2 to 5 µM; in that of `COc1cc(C2COCCCN2c2nc(C)nc(N)n2)c(Cl)cc1N1CCCCC1` (stereo not shown) [C-101], 0.6 to 2 µM; in that of `COc1cc(C2COCCCN2c2ccnc(N)n2)c(Cl)cc1OC1CCCC1` (stereo not shown) [C-102], 0.6 to 2 µM.
Same read-out and setting: in the case of `CCOc1cc(Cl)c([C@H]2COCCCN2c2cc(C)nc(N)n2)cc1OCC` [C-103] it was below 0.6 µM; in that of `CCOc1cc(Cl)c([C@@H]2COCCCN2c2cc(C)nc(N)n2)cc1OCC` [C-104], at least 5 µM; in that of `CSCOc1ccc(C2COCCCN2c2cc(C)nc(N)n2)c(Cl)c1` (stereo not shown) [C-105, 4-[3-(2-Chloro-4-methylsulfanylmethoxy-phenyl)-[1,4]oxazepan-4-yl]-6-methyl-pyrimidin-2-ylamine], below 0.6 µM.
Still for that read-out and setting: to `CC[C@@H]1COC[C@@H](c2ccc(CS(C)(=O)=O)cc2Cl)N(c2cc(C)nc(N)n2)C1` [C-110] belongs at least 5 µM; to `Cc1cc(N2CCCOCC2c2cc(C)c(N3CCCC3)cc2Cl)nc(N)n1` (stereo not shown) [C-112], 0.6 to 2 µM; to `Cc1cc(N2CCCOCC2c2ccc(CS(C)(=O)=O)cc2OC(F)(F)F)nc(N)n1` (stereo not shown) [C-113], below 0.6 µM.
For the compound `Cc1cc(N2CCCOC[C@H]2c2cc(C)c(N)cc2Cl)nc(N)n1` [C-114], the IC50 is at least 5 µM.
The same measure, in the same setting: to `Cc1cc(N2CCCOC[C@@H]2c2cc(C)c(N)cc2Cl)nc(N)n1` [C-115] belongs below 0.6 µM.
Turning to `CCOc1cc(Cl)c([C@H]2COCCCN2c2cc(C)nc(N)n2)cc1Cl` [C-117], the IC50 is below 0.6 µM.
On the same count and under the same terms, in the case of `Cc1cc(N2CCCOC[C@@H]2c2cc(C(F)(F)F)c(N)cc2Cl)nc(N)n1` [C-119] it was below 0.6 µM.

A word on the IC50: it is the concentration that gives 50% inhibition. A low value points to higher potency.
